Results: US8367084B2, “Oily base for a cosmetic and cosmetic comprising the same” (Kokyu Alcohol Kogyo Co., Ltd., priority 2009, dated 2013)

Legend:
Format in all cases: physicochemical
[1] = Acid value (Cosmetics Raw Material Standard 18); settings: ester compound
From the text: Acid value: determined in accordance with “Cosmetics Raw Material Standard 18, Method for the Determination of an Acid Value”.

[2] = Compatibility of the ester compound with oil agents; parameters: key to Compatibility: G: the compound exhibits the compatibility with both the hydrocarbon oil and silicone oil; M: the compound exhibits the compatibility with either of the two; B: the compound exhibits the compatibility with neither of the two; settings: for Compatibility: 90% by mass ester compound in 10% by mass oil agent, appearance after one week at 25 degrees C.; for compatibility with the oil agents (in words): ester compound
Method: Compatibility: The oil agents used were as follows:
Hydrocarbon oil: Squalane (OLIVE SQUALANE from Kokyu Alcohol Kogyo Co., Ltd.)
Silicone oil: Cyclomethicone (DOWCORNING TORAY SH 245 FLUID, trademark, from Dow Corning Toray Co., Ltd.)
In 10% by mass of each oil agent indicated above were dissolved 90% by mass of the ester compound obtained from Preparation Examples and Comparative Preparation Examples in a hot water bath at a temperature of 80 to 90 degrees C. for 60 minutes under stirring. Next, the mixture obtained was cooled to 50 degrees C. under stirring and then placed in a temperature-controlled room at 25 degrees C. The appearance after one week was evaluated visually. The indication of the evaluation results is as follows.

[3] = Hydroxyl value (Cosmetics Raw Material Standard 24); settings: ester compound; unit assumed
From the text: Hydroxyl value: determined in accordance with “Cosmetics Raw Material Standard 24, Method for the Determination of a Hydroxyl Value”.

[4] = Viscosity by Brookfield Viscometer DV-II+; settings: Spindle No. 2, 12 rpm
Method: Viscosity: determined by Brookfield Viscometer DV-II+ (Spindle No. 2, 12 rpm, 25 degrees C.).

Acid value [1] | Compatibility [2] | compatibility with the oil agents (in words) [2] | Hydroxyl value [3] [mg KOH/g] | Viscosity in mPa · s at 25° C. [4] [mPa · s] | Molecule
0.02 | M | not good | 1.25 | 109 | CCCCC(CC)C(=O)OCC(COC(=O)C(CC)CCCC)(COC(=O)C(CC)CCCC)COC(=O)C(CC)CCCC (stereo not shown) [Com. Prep. Ex. 2, pentaerythrityl tetraethylhexanoate]
0.38 | M | not good | 0.59 | 290 | pentaerythrityl tetraisostearate [Com. Prep. Ex. 3]
